# Patent US6057294A, “Peptide” (Northern Sydney Area Health Service of Pacific Highway, priority 1995, dated 2000)
# Ends that are not written are not given here.
# What was measured:
# [1] = system: adjuvant induced arthritis in rats; experiment: Adjuvant induced arthritis in rats; type: in vivo, rat; conditions: for tail thickness: n = 5; for EFFECT: peptides 7 mg/rat, CS 50 mg/kg, DXM 2 mg/kg, given with MTB adjuvant
# [2] = system: experimental allergic neuritis in Lewis rats; experiment: Experimental allergic neuritis (EAN); type: in vivo, rat; conditions: peptide added to immunisation emulsion at 70 mg/ml
# [3] = system: diabetes in NOD/Lt (F) mice; experiment: Cyclophosphamide induced diabetes in NOD/Lt (F) mice; type: in vivo, mouse; conditions: for PERCENTAGE OF MICE DEVELOPING DIABETES: 250 μg s.c. on Day -1, 0 and 1, n = 16
# Method: In yet another model of T-cell mediated disease the effects of subcutaneously injected core peptide on the induction of diabetes in NOD/Lt (F) mice was tested "blind" by an independent experimenter (Prof L Harrison, WEHI, Melbourne). NOD/Lt(F) mice 10 weeks old at experimental Day 0. This is a high-incidencestrain commonly used as an animal model for diabetes. Core peptide dissolved in squalane at a stock concentration of 3.33 mg/ml. Ovalbumin used as a control was suspended in squalane at a stock concentration of 3.33 mg/ml. Peptide and ovalbumin were "solubilised" just prior to injection, with vortexing. A total of 250 μg (75 μl) was injected subcutaneously on the right flank on Day -1, 0 and 1. Mice were given intraperitoneal cyclophosphamide in water at 300 mg/kg on Day 0. Blood glucose measurements were taken on Day 0, 10, 14 and 21. There were 16 mice in the treatment group and 16 in the ovalbumin control group.
# [4] = system: 2B4.11 T-cell activation (IL-2 production); experiment: Antigen presentation assay (IL-2 production by 2B4.11 T-cells, CTLL proliferation readout); type: cell-based; conditions: 100 μM
# Text: An antigen presentation assay (described below) examined the ability of a number of peptides to inhibit T-cell activation following antigen recognition, by measuring the product of T-cell activation, Interleukin-2 (IL-2).
# Material. The following cell lines were used: 2B4.11, a T-cell hybridoma that expresses a complete antigen receptor on the cell surface (Samelson et al., 1983) and produces IL-2 following antigen recognition (cytochrome c). Interleukin-2 dependent T-cell line (CTLL) for conventional biological IL-2 assays; and the B-cell hybridoma cell line LK 35.2 (LK, I-E^k bearing; Kappler et al., 1982) which acts as the antigen presenting cell. The hybridomas were grown in TCM. Cytochrome c (Sigma, USA) was added in the media to give a final concentration of 50 μM in the antigen presenting assay.
# Peptides examined included: core peptide, seven other control peptides from a variety of sources having an equivalent length to core peptide and peptides A, B, C, D, E and F. The final concentration of the peptides in the antigen presentation assay was examined at several levels ranging from 10 μM to 100 μM.
# Method. […] Supernatants were recovered and IL-2 content determined by CTLL proliferation. […] In addition to measuring ^3 H-thymidine incorporation, IL-2 measurements (IU/ml) were also determined. […]
# TCR on 2B4.11 cells = experiment: TCR assembly and cell surface expression on T-cells by flow cytometry; type: cell-based
# Method: The T-cell hybridoma 2B4.11 which expresses a complete TCR on the cell surface was used as a positive control to assess the effects of peptides on TCR expression. The cells were grown in TCM. The β-deficient variant 21.2.2 and the β- and .zeta.-deficient cell line 3.12.29, derived by repetitive subcloning of 2B4.11 cells (Sussman et al., 1988) and lacking TCR expression were used as negative controls.
# Peptides tested included core peptide, lipopeptides and a peptide from tumor necrosis factor receptor termed 558 (used as a negative control). […]
# The following antibodies were used for immuno-precipitation and flow cytometry analysis: Mouse IgG2a monoclonal antibody (MAb) against TCR-α chain of the T-cell hybridoma 2B4 (A2B4-2, Samelson et al., 1983), MAb against 2B4.11 TCR-β chain (K)25), hamster IgG anti-CD3-ε MAb (145-2C11 [2C11], Leo et al., 1987), rabbit anti-CD3-ε polyclonal antiserum raised against purified mouse CD3-ε (127, Minami et al., 1987), anti-CD3-δ polyclonal antibody (R9) raised in goat immunized with a COOH-terminal peptide of the mouse CD3-δ chain (Samelson et al., 1986).
# FACS analysis: 1×10^6 (2B4.11, 21.2.2) cells were incubated with a number of separate peptides and lipopeptides in a final concentration of 10 μM overnight. The cells were then wvashed with PBS and incubated with 50 μl primary antibody (A2B4 or 2C11) for 30 mins at 4° C. […]
compound,measurement,setting,value
GLRILLLKV [core peptide],EFFECT OF PEPTIDE,[1]; 1.7 mg,No effect
same,EFFECT OF PEPTIDE,[1]; 3.5 mg,Protective
same,EFFECT OF PEPTIDE,[1]; 7 mg,Protective
same,tail thickness,"[1]; DAY 5, MTB + peptide",7.62 mm
same,tail thickness,"[1]; DAY 10, MTB + peptide",8.24 mm
same,tail thickness,"[1]; DAY 15, MTB + peptide",8.76 mm
same,tail thickness,"[1]; DAY 20, MTB + peptide",8.96 mm
same,tail thickness,"[1]; DAY 25, MTB + peptide",9.10 mm
same,ulceration and inflammation at the site of injection,[1]; compared with MTB alone,not present
same,effect on adjuvant arthritis,[1]; comparison among peptides,Best results
same,animals with no evidence of arthritis,"[1]; first experiment, 3 rats per group, 0.1 ml suspension in adjuvant, after 18 days",2/3
same,EFFECT,[1],Protective
same,difference in tail measurements versus saline injected rats,"[1]; rat, in vivo",not statistically significant
same,induction and clinical severity of EAN,[2],delayed induction and clinical severity of disease
same,PERCENTAGE OF MICE DEVELOPING DIABETES,[3]; DAY 0,0%
same,PERCENTAGE OF MICE DEVELOPING DIABETES,[3]; DAY 10,0%
same,PERCENTAGE OF MICE DEVELOPING DIABETES,[3]; DAY 14,5%
same,PERCENTAGE OF MICE DEVELOPING DIABETES,[3]; DAY 21,12%
same,effect on the induction of autoimmune beta cell destruction (diabetes),"[3]; mouse, in vivo",protective effect
same,reduction in IL-2 production compared to control,[4],15%-30%
same,cell surface expression of TCR,"TCR on 2B4.11 cells; 10 μM, overnight, 2B4.11 cells",did not alter the cell surface expression
same,T-cell surface antigen receptor expression,"TCR on 2B4.11 cells; 100 μM, incubation 1-10 days",no change in T-cell surface antigen receptor expression
"C[C@@H]1C[C@H]2[C@@H]3CCC4=CC(=O)C=C[C@]4(C)[C@@]3(F)[C@@H](O)C[C@]2(C)[C@@]1(O)C(=O)CO [DXM, dexamethasone, reference compound]",onset of arthritis delayed by,[1]; 2 mg/kg,3 to 4 days
same,EFFECT,[1],No effect
"CCCCCCCCCCCCCCCC(=O)O [Palmitic acid, reference compound]",effect on IL-2 production,[4],did not affect IL-2 production
"Ovalbumin: Ovalbumin used as a control, suspended in squalane [reference compound]",PERCENTAGE OF MICE DEVELOPING DIABETES,[3]; DAY 0,0%
same,PERCENTAGE OF MICE DEVELOPING DIABETES,[3]; DAY 10,0%
same,PERCENTAGE OF MICE DEVELOPING DIABETES,[3]; DAY 14,42%
same,PERCENTAGE OF MICE DEVELOPING DIABETES,[3]; DAY 21,65%
